Columns and labels:
[1] = target: T1, Type-2 angiotensin II receptor (Homo sapiens, UniProt P50052); type: functional
T1 sequence (P50052 whole entry): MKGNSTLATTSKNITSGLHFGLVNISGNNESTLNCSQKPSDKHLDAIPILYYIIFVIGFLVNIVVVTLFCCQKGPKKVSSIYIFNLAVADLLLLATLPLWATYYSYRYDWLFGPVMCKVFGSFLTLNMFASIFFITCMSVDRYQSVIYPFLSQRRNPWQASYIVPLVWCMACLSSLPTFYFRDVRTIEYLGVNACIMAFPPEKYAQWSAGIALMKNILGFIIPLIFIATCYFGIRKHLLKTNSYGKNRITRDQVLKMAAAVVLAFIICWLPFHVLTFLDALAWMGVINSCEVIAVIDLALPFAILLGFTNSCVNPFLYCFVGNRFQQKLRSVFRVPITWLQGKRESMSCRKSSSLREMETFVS

[2] = target: T2, Peroxisome proliferator-activated receptor gamma (Homo sapiens, UniProt P37231); type: functional
T2 sequence (P37231 whole entry): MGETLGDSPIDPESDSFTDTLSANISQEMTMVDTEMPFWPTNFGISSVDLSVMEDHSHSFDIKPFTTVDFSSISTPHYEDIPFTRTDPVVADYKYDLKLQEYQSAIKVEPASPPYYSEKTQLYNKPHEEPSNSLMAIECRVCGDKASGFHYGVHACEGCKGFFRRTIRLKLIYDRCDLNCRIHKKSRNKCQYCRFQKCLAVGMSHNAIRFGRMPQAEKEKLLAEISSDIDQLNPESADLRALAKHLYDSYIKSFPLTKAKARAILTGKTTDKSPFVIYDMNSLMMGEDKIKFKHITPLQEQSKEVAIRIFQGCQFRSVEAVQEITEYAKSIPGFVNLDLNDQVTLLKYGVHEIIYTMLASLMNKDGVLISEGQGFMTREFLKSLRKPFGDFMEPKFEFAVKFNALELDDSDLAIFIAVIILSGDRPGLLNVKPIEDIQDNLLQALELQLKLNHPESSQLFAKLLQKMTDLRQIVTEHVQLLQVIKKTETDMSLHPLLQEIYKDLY

[3] = target: T2, Peroxisome proliferator-activated receptor gamma; type: functional; remark: listed apart in the source
[4] = target: T3, Gastric inhibitory polypeptide receptor (Homo sapiens, UniProt P48546)
T3 sequence (P48546 whole entry): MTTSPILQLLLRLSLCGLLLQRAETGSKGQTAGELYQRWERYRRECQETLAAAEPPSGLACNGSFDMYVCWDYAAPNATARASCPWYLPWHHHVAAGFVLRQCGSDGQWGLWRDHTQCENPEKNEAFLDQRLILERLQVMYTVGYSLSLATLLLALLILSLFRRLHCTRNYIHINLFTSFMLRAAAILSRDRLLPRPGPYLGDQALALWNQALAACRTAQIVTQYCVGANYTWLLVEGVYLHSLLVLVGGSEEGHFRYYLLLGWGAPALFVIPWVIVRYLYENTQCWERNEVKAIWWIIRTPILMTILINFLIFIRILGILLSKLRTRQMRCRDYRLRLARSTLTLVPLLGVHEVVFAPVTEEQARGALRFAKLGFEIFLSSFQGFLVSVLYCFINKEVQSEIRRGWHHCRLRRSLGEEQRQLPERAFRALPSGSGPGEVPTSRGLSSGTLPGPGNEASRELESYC

Melanocortin receptor 4 = Melanocortin receptor 4 (Homo sapiens, UniProt P32245)
Substance-P receptor = Substance-P receptor (Homo sapiens, UniProt P25103)
Histamine H2 receptor = Histamine H2 receptor (Homo sapiens, UniProt P25021)
D(1A) dopamine receptor = D(1A) dopamine receptor (Homo sapiens, UniProt P21728)
[5] = target: T4, Corticotropin-releasing factor receptor 1 (Homo sapiens, UniProt P34998)
T4 sequence (P34998 whole entry): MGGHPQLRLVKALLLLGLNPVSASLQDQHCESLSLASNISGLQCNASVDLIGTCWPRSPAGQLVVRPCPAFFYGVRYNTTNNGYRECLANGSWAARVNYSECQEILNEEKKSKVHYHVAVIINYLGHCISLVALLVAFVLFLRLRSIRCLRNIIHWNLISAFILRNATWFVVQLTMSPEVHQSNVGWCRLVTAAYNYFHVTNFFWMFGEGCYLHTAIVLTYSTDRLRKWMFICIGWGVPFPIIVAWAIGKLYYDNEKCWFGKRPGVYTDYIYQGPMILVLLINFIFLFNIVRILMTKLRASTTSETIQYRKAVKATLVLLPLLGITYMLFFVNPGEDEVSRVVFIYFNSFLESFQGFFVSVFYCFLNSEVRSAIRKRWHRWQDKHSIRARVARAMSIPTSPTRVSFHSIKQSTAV

Estrogen receptor beta = Estrogen receptor beta (Homo sapiens, UniProt Q92731)
D(4) dopamine receptor = target: T5, D(4) dopamine receptor (Homo sapiens, UniProt P21917)
T5 sequence (P21917 whole entry): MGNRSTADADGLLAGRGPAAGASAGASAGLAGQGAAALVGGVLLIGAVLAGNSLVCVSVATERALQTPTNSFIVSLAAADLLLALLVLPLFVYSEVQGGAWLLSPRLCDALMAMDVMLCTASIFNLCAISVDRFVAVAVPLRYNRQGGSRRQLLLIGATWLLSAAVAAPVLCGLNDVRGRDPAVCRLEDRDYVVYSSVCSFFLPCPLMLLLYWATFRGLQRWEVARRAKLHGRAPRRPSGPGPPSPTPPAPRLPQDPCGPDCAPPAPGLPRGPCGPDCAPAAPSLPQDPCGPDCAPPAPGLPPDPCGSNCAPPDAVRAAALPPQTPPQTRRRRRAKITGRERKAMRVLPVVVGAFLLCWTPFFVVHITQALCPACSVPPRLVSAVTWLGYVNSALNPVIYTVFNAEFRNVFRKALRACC

[6] = target: 5-hydroxytryptamine receptor 7 (Homo sapiens, UniProt P34969)
[7] = target: Gamma-aminobutyric acid receptor subunit alpha-1/alpha-2/beta-2/gamma-2 (Homo sapiens, UniProt P14867+P18507+P47869+P47870); type: functional, cell-based
[8] = target: 5-hydroxytryptamine receptor 2A (Homo sapiens, UniProt P28223); type: functional, cell-based
Histamine H1 receptor = Histamine H1 receptor (Homo sapiens, UniProt P35367); type: functional, cell-based
Note: assay procedure not described here.

Sequence of Histamine H1 receptor (P35367 whole entry): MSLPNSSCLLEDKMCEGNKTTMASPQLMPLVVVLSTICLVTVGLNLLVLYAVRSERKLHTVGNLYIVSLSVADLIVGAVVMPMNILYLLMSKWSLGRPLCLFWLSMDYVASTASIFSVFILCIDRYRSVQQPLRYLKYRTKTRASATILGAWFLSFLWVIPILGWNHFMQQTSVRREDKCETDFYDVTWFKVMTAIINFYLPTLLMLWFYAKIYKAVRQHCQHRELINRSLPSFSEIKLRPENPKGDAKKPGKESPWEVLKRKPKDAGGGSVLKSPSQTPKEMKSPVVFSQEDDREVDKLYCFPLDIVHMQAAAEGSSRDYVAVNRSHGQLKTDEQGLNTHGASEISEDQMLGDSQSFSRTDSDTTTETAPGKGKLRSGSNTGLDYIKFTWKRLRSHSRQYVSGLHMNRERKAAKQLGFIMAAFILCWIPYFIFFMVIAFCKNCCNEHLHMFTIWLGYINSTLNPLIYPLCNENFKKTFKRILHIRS
Sequence of D(1A) dopamine receptor (P21728 whole entry): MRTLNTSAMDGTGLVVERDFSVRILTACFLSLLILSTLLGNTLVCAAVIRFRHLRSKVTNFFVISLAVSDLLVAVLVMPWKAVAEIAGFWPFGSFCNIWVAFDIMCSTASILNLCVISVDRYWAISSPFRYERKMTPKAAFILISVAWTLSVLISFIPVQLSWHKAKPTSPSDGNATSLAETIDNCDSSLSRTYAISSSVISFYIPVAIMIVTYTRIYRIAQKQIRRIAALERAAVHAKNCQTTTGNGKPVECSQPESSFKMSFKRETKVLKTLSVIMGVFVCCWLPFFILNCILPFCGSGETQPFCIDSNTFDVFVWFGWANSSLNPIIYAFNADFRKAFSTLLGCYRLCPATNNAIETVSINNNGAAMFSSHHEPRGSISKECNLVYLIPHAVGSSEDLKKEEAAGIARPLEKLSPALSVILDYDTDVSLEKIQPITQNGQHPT
Sequence of Melanocortin receptor 4 (P32245 whole entry): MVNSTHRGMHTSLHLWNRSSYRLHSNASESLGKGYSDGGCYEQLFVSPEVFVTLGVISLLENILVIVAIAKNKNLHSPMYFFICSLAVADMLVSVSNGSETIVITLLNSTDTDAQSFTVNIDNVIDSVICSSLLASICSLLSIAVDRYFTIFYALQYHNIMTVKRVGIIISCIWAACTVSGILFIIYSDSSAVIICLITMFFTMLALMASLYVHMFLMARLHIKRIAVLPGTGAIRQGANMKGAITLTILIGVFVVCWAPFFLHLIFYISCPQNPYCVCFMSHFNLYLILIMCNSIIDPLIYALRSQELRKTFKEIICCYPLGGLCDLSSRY
Sequence of Substance-P receptor (P25103 whole entry): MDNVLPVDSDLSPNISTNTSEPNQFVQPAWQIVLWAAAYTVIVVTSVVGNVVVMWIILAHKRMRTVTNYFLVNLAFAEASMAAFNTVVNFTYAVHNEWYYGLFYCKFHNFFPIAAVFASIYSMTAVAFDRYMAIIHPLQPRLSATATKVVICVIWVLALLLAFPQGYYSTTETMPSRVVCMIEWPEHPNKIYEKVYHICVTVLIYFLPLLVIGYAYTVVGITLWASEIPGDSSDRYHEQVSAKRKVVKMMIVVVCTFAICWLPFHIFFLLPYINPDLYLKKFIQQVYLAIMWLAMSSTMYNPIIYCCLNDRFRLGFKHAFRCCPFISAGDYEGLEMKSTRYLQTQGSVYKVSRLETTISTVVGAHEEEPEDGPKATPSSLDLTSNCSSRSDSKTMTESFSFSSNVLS
Sequence of 5-hydroxytryptamine receptor 7 (P34969 whole entry): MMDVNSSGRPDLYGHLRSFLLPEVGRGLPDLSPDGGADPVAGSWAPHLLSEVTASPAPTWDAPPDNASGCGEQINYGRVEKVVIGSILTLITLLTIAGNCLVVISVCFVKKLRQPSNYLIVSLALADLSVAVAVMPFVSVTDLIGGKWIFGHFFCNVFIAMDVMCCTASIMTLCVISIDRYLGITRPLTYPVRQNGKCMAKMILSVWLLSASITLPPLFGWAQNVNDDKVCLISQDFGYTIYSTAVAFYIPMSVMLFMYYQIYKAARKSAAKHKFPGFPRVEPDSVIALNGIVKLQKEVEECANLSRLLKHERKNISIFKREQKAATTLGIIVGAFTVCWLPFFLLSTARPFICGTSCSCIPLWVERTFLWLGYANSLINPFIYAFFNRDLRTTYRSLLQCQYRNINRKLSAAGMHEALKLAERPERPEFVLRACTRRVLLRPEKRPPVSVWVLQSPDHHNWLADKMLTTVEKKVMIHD
Sequence of Histamine H2 receptor (P25021 whole entry): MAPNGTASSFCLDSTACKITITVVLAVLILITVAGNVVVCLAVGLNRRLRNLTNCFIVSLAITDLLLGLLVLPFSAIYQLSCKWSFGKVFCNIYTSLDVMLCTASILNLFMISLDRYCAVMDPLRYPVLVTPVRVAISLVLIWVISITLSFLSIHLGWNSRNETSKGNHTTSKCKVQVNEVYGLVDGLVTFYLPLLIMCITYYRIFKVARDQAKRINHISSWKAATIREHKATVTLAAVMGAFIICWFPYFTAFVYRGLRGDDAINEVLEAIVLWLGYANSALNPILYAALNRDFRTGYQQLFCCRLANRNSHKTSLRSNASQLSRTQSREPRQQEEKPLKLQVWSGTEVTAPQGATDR
Sequence of Gamma-aminobutyric acid receptor subunit alpha-1/alpha-2/beta-2/gamma-2 (P14867 whole entry): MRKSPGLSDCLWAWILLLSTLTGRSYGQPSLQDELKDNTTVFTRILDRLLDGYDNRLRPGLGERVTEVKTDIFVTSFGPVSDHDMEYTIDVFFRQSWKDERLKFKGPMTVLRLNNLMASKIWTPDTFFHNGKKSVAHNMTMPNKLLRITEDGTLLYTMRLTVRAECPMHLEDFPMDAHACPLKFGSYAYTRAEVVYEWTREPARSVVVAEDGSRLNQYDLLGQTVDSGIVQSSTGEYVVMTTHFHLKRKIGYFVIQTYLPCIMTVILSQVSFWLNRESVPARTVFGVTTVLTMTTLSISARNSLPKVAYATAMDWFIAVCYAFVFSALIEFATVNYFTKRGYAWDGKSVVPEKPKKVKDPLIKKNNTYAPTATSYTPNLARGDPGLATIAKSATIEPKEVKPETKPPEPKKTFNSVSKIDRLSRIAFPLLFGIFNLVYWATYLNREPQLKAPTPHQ
Sequence of Gamma-aminobutyric acid receptor subunit alpha-1/alpha-2/beta-2/gamma-2 (P47870 whole entry): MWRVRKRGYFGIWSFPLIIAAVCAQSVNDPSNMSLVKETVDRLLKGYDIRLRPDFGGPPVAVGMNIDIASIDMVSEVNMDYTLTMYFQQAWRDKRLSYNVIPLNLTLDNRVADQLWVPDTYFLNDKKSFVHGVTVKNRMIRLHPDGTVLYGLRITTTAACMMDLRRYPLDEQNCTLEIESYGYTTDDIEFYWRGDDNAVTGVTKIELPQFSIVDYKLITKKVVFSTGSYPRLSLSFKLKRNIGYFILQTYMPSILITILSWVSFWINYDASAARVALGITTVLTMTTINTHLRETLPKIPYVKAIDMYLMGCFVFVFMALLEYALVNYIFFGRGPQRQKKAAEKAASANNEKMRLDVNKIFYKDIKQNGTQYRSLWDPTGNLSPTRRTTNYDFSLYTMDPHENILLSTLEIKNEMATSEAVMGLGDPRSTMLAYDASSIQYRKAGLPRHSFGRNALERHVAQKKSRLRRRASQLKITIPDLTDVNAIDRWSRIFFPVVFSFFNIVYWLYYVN
Sequence of Gamma-aminobutyric acid receptor subunit alpha-1/alpha-2/beta-2/gamma-2 (P18507 whole entry): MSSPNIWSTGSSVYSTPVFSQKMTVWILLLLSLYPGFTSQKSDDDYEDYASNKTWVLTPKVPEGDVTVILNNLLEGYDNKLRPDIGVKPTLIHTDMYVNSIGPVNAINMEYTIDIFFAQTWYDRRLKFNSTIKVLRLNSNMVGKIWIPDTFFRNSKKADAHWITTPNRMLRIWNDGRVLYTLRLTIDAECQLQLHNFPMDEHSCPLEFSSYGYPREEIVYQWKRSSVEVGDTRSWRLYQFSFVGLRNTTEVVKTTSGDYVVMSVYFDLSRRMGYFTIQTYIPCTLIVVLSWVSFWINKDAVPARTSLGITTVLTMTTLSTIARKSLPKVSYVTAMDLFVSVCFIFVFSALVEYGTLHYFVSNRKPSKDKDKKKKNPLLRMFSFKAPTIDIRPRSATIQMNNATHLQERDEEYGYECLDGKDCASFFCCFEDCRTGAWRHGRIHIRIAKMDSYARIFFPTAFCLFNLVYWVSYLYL
Sequence of Gamma-aminobutyric acid receptor subunit alpha-1/alpha-2/beta-2/gamma-2 (P47869 whole entry): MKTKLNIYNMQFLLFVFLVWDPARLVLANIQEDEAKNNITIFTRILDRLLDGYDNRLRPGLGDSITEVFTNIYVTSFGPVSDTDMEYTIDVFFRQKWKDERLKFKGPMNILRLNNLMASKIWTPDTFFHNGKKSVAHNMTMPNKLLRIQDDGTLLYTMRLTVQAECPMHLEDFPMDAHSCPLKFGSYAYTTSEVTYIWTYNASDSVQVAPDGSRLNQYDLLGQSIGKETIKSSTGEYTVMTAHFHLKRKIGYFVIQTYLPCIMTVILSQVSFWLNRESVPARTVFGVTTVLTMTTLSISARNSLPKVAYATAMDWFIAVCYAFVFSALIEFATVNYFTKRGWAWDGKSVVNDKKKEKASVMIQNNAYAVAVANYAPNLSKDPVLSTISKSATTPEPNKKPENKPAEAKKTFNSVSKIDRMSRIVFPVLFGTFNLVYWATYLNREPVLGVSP
Sequence of Estrogen receptor beta (Q92731 whole entry): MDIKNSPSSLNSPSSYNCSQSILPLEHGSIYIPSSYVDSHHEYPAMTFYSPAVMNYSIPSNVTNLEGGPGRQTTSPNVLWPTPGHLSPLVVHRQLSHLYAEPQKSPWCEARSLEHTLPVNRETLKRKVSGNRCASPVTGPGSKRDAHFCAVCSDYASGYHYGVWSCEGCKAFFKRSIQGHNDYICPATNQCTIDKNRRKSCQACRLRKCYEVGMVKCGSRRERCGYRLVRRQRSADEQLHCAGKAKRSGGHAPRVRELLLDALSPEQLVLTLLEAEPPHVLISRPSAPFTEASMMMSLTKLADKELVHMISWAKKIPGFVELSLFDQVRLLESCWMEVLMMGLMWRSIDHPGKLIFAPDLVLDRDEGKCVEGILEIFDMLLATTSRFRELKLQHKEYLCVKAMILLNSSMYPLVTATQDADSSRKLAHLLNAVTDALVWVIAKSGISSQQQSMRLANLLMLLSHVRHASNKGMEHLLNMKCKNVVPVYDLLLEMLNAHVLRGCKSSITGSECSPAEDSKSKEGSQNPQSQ

`CCOC(=O)/C=C1\SC(N2CCCCC2)C(=O)N1C` (stereo not drawn) [ETOZOLIN] gave an AC50 [1] of over 100 µM.

`CCC(CC)(CC(=O)Nc1cccc(/C=C/c2nc(C3CCC3)cs2)c1)C(=O)O` gave an AC50 [2] of over 30 µM and an AC50 [3] of over 30 µM.

Compound `O=[N+]([O-])O[C@@H]1CO[C@H]2[C@@H]1OC[C@@H]2O` [ISOSORBIDE MONONITRATE] has an AC50 [4] of over 30 µM, an AC50 (Melanocortin receptor 4) of over 30 µM and an AC50 (Substance-P receptor) of over 10 µM. For the same compound, the AC50 (Histamine H2 receptor) was over 10 µM, the AC50 (D(1A) dopamine receptor) was over 10 µM and the AC50 [5] was over 30 µM. For the same compound, the AC50 (Estrogen receptor beta) was over 30 µM and the AC50 (D(4) dopamine receptor) was over 10 µM.

For `O=[N+]([O-])c1cn2c(n1)OC[C@@H](OCc1ccc(OC(F)(F)F)cc1)C2` [PRETOMANID], the AC50 (Melanocortin receptor 4) was over 30 µM, the AC50 (Substance-P receptor) was over 10 µM and the AC50 (Histamine H2 receptor) was over 10 µM. For the same compound, the AC50 [6] was over 10 µM and the AC50 (D(1A) dopamine receptor) was over 10 µM.

With `Cc1oc(=O)oc1CN1CCN(c2cc3c(cc2F)c(=O)c(C(=O)O)c2n3C(C)S2)CC1` (stereo not drawn) [PRULIFLOXACIN] the AC50 [7] was over 30 µM and the AC50 [8] was over 30 µM.

`Cc1cc(C)c(NC(=O)CN(CC(=O)O)CC(=O)O)c(C)c1Br` [MEBROFENIN] was tested, and the AC50 [7] was over 30 µM and the AC50 [8] was over 30 µM.

For `COC1=C(OC)C(=O)C(C/C=C(\C)CC/C=C(\C)CC/C=C(\C)CC/C=C(\C)CC/C=C(\C)CC/C=C(\C)CC/C=C(\C)CC/C=C(\C)CC/C=C(\C)CCC=C(C)C)=C(C)C1=O` [UBIDECARENONE], the AC50 [7] was over 30 µM and the AC50 [8] was over 30 µM.

For `CC[C@H]1CN2CCc3cc(OC)c(OC)cc3[C@@H]2C[C@@H]1C[C@H]1NCCc2cc(OC)c(OC)cc21` [EMETINE], the AC50 [2] was over 30 µM, the AC50 [7] was over 30 µM and the AC50 [3] was over 30 µM.

`CN1CCN(C2=Nc3ccccc3Sc3ccc(Cl)cc32)CC1` [CLOTHIAPINE] was tested, and the AC50 [7] was over 30 µM, the AC50 [8] was 1 µM and the AC50 (Histamine H1 receptor) was over 30 µM.

`C=CCN1C[C@H](C(=O)N(CCCN(C)C)C(=O)NCC)C[C@@H]2c3cccc4[nH]cc(c34)C[C@H]21` [CABERGOLINE] gave an AC50 (Melanocortin receptor 4) of over 10 µM and an AC50 [7] of over 30 µM.

Compound `CN(C)CCC=C1c2ccccc2C=Cc2ccccc21` [CYCLOBENZAPRINE] has an AC50 [4] of over 30 µM, an AC50 (Melanocortin receptor 4) of over 30 µM and an AC50 [5] of over 30 µM. The AC50 (Estrogen receptor beta) was over 30 µM.

In the case of `CCOc1ccccc1OCC1CNCCO1` (stereo not drawn) [VILOXAZINE], the AC50 [4] is reported as over 30 µM, the AC50 (Melanocortin receptor 4) is reported as over 30 µM and the AC50 (Substance-P receptor) is reported as over 10 µM. The AC50 [1] was over 100 µM, the AC50 (Histamine H2 receptor) was over 10 µM and the AC50 [6] was over 10 µM. It also gave an AC50 (D(1A) dopamine receptor) of over 10 µM, an AC50 [5] of over 30 µM and an AC50 (Estrogen receptor beta) of over 30 µM. The AC50 (D(4) dopamine receptor) was over 10 µM and the AC50 (Histamine H1 receptor) was over 30 µM.

`COc1ccc(C(=O)Nc2ccccc2CCC2CCCCN2C)cc1` (stereo not drawn) [ENCAINIDE] was tested, and the AC50 [4] was over 30 µM, the AC50 (Melanocortin receptor 4) was over 30 µM and the AC50 (Substance-P receptor) was over 10 µM. It also gave an AC50 (Histamine H2 receptor) of 16.2 µM, an AC50 (D(1A) dopamine receptor) of over 10 µM and an AC50 [5] of over 30 µM. The AC50 [8] was 2.2 µM, the AC50 (Estrogen receptor beta) was over 30 µM and the AC50 (D(4) dopamine receptor) was over 10 µM. It also gave an AC50 (Histamine H1 receptor) of over 30 µM.

With `CN(C)CCc1c[nH]c2ccc(C[C@H]3COC(=O)N3)cc12` [ZOLMITRIPTAN] the AC50 [7] was over 30 µM and the AC50 (Histamine H1 receptor) was over 30 µM.

In the case of `CCN1CCCC1CNC(=O)c1cc(S(N)(=O)=O)ccc1OC` (stereo not drawn) [SULPIRIDE], the AC50 [1] is reported as over 100 µM.

Work on `CN(C)CC/C=C1\c2ccccc2CSc2ccccc21` [DOTHIEPIN] yielded an AC50 [8] of 4.8 µM.

Work on `CC[C@@H](C(N)=O)N1CCCC1=O` yielded an AC50 [2] of over 30 µM, an AC50 [7] of over 30 µM and an AC50 [8] of over 30 µM. The AC50 [3] was over 30 µM.

Compound `CCOc1ccc(Cc2cc([C@@H]3O[C@H](CO)[C@@H](O)[C@H](O)[C@H]3O)ccc2Cl)cc1` [DAPAGLIFLOZIN] has an AC50 (Melanocortin receptor 4) of over 30 µM, an AC50 (Histamine H2 receptor) of over 10 µM and an AC50 (D(1A) dopamine receptor) of over 10 µM.

Work on `COc1ccccc1N1CCN(CC(O)COc2cccc3ccccc23)CC1` (stereo not drawn) [NAFTOPIDIL] yielded an AC50 [8] of 9.2 µM.

In the case of `COc1cc2nc(N3CCN(C(=O)c4ccco4)CC3)nc(N)c2cc1OC` [PRAZOSIN], the AC50 [4] is reported as over 30 µM, the AC50 (Melanocortin receptor 4) is reported as over 30 µM and the AC50 (Substance-P receptor) is reported as over 10 µM. It also gave an AC50 [1] of over 100 µM, an AC50 (D(1A) dopamine receptor) of over 10 µM and an AC50 [5] of over 30 µM. The AC50 (Estrogen receptor beta) was over 30 µM and the AC50 (D(4) dopamine receptor) was over 10 µM.

Work on `CCCC1O[C@@H]2C[C@H]3[C@@H]4CCC5=CC(=O)C=C[C@]5(C)[C@H]4[C@@H](O)C[C@]3(C)[C@]2(C(=O)CO)O1` (stereo partly drawn) [BUDESONIDE] yielded an AC50 (Melanocortin receptor 4) of over 10 µM.

In the case of `NC1CCN(c2c(F)cc3c(=O)c(C(=O)O)cn(C4CC4)c3c2Cl)C1` (stereo not drawn) [CLINAFLOXACIN], the AC50 [7] is reported as over 300 µM.

With `CCCCCNC(=N)N/N=C/c1c[nH]c2ccc(OC)cc12` [TEGASEROD] the AC50 [2] was over 30 µM, the AC50 [4] was over 30 µM and the AC50 (Melanocortin receptor 4) was 5.34 µM. For the same compound, the AC50 (Substance-P receptor) was over 10 µM, the AC50 [6] was 0.802 µM and the AC50 (D(1A) dopamine receptor) was 0.942 µM. It also gave an AC50 [5] of over 30 µM, an AC50 [8] of 1.5 µM and an AC50 (Estrogen receptor beta) of over 30 µM. The AC50 [3] was over 30 µM and the AC50 (D(4) dopamine receptor) was 0.657 µM.

From ChEMBL document CHEMBL5291721, “A preclinical secondary pharmacology resource illuminates target-adverse drug reaction associations of marketed drugs” (Nat Commun, 2023)
